In test [1] the test system is Mec1 chronic B cell leukemia cell line. Nature of the test: Cell Titer-Glo luminescent cell viability assay, Mec1 cell line. Format: cell-based. Conditions: Homo sapiens; Mec1, 48 hour treatment. The procedure:
(§1) Chronic B cell leukemia cell lines (JVM2 and Mec1) (American Type Culture Collection (ATCC), Manassas, Va.) were plated in 96 well plates and 24 hours later were treated with increasing concentrations of a CHK1 inhibitor (Formula 1.1). Following 48 hour treatment cell viability was measured using Cell Titer-Glo® luminescent cell viability assay (Promega, Madison, Wis.).
For orientation: In ATP-based viability assays light output follows the ATP content of the culture.

In test [2] the test system is JVM2 chronic B cell leukemia cell line. Kind of test: Cell Titer-Glo luminescent cell viability assay, JVM2 cell line. Format: cell-based. Conditions: Homo sapiens, JVM-2; JVM2, 48 hour treatment. The procedure:
as §1

In test [3] the test system is tumor cells isolated from CLL patients. Kind of test: Ex vivo cell viability (Cell Titer-Glo) of mononuclear cells isolated from CLL patient blood. Format: cell-based, human. The conditions noted are these: 48 hour treatment; for IC50: Homo sapiens. As for the experimental part: Blood samples (10 mls) were collected from CLL patients and placed on ice. Whole blood was then diluted with phosphate buffered saline (PBS) (2-3 fold dilution) and carefully layered over 12 mls Ficoll-paque (GE Healthcare, Westborough, Mass.) in a 50 ml conical tube. Samples were then centrifuged at 3500 rpm for 35 minutes without break at room temperature. Plasma was removed and opaque interphase containing mononuclear cells was collected and placed into a clean conical centrifuge tube. Cells were then washed twice with PBS with 1% fetal bovine serum (FBS). Following final wash, cells were resuspended in 5˜10 mls RPMI 1640 (Invitrogen, Grand Island, N.Y.) plus 10% fetal calf serum (FCS) medium. Cells were then counted by Trypan blue exclusion method and viability and purity assessed.
Cells were then plated into 96 well plates (1×10^5 cells/well) and incubated overnight in a drug free medium. The next morning cells were treated with fludarabine (1, 3 and 10 μM), gemcitabine (0.1 and 1 μM), CHK1 inhibitor of Formula 1.1 (0.01, 0.1 and 0.5 μM) or the combination of fludarabine and CHK1 inhibitor or gemcitabine and CHK1 inhibitor. […] Following 48 hour treatment, cell viability was measured using Cell Titer-Glo® luminescent cell viability assay (Promega, Madison, Wis.).

Test [4] has as its system marrow mononuclear cells from patients with acute myelogenous leukemia. Kind of test: Colony formation of AML patient marrow mononuclear cells in methylcellulose. Format: cell-based, human. The conditions noted are these: 30-300 nM, 48-hour incubation, colonies scored after 14 days, 9 AML patient samples. The procedure:
Marrow mononuclear cells from 9 patients with acute myelogenous leukemia were isolated by sedimentation on Ficoll-Hypaque density gradients (English et al. Single-Step Separation of Red Blood Cells. Granulocytes and Mononuclear Leukocytes on Discontinuous Density Gradients of Ficoll-Hypaque. Journal of Immunological Methods, 5: 249-252, 1974). After removal of an aliquot for staining to determine the percentage of blasts, replicate aliquots containing 1×10^6 cells in 1 ml Improved Dulbecco's Medium containing 20% heat-inactivated fetal bovine serum, 50 units/ml penicillin G, 50 μg/ml streptomycin and 2 mM glutamine (medium A) were treated with diluent (0.2% dimethyl sulfoxide), increasing concentrations of cytarabine alone (25-300 nM), increasing concentrations of a CHK-1 inhibitor (formula 1.1) (30-300 nM), or increasing concentrations of cytarabine in the presence of 100 nM of a CHK-1 inhibitor (Formula 1.1). […] Following a 14-day incubation at 37° C., colonies containing ≧50 cells were scored on an inverted microscope using established criteria (Eaves, C. and Lambie, K. Atlas of human hematopoietic colonies. Vancouver: StemCell Technologies Inc., 1995). […]

The next test has as its target T1, CD20 antigen (Homo sapiens, UniProt P11836).
T1 sequence (P11836 1-297): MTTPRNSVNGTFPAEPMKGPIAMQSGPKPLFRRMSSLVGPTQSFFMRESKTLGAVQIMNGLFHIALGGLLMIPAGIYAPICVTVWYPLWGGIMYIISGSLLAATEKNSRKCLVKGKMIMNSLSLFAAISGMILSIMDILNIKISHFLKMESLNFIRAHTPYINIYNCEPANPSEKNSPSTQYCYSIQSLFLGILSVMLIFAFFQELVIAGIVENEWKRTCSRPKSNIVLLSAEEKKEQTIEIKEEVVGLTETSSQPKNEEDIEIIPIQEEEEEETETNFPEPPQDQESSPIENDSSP
Conditions: read-out: binding affinity; cited from earlier work.

[5] abbreviates: relapsed patient who one week prior received rituximab treatment.
Where [6] appears, read: newly diagnosed patient who had not received previous treatment.

By GI50 is commonly meant the concentration that inhibits growth by half. A low value points to more potent growth inhibition. Usually IC50 stands for the concentration at which inhibition is half-maximal. With `NC(=O)Nc1cc(-c2cccc(F)c2)sc1C(=O)N[C@H]1CCCNC1` [Formula 1.1, 5-(3-Fluoro-phenyl)-3-ureido-thiophene-2-carboxylic acid (S)-piperidin-3-ylamide], the GI50 in test [1] came out at 79 nM; in test [2] it was 13 nM. The IC50 in test [3] (setting [5]) is 11 nM. Moreover, the “response (cell viability)” value in test [3] (setting [6]) is reported as “not”. Besides, in test [4], the “samples showing single agent sensitivity” value is reported as “Four out of nine samples”.
`Nc1nc(F)nc2c1ncn2[C@@H]1O[C@H](CO)[C@@H](O)[C@@H]1O` [fludarabine]: the IC50 in test [3] (setting [6]) stood at 560 nM; in test [3] (setting [5]), 5100 nM.
Consider `Nc1ccn([C@@H]2O[C@H](CO)[C@@H](O)C2(F)F)c(=O)n1` [gemcitabine], for which the “response (cell viability)” value in test [3] (setting [6]) and in test [3] (setting [5]) was “not” throughout.
In the case of rituximab, in the test with CD20 antigen, the Kd was ~8 nM.

The values above are taken from patent US20100226917A1, “METHODS FOR THE TREATMENT OF HEMATOLOGIC MALIGNANCIES” (AstraZeneca AB, priority 2007, published 2010).
